The record followed here is patent US20220306695A1, “COMPSTATIN ANALOGUES AND THEIR MEDICAL USES” (priority 2019, published 2022).

The test system of the assay is classical complement pathway. Nature of the assay: In vitro haemolysis assay (inhibition of classical complement pathway). The class given is cell-based, human. As for the experimental part:
Method The in vitro effect of test compounds was assessed by measuring their inhibitory effect of the classical complement pathway in a haemolysis assay. Briefly, test compounds and reference compounds were dissolved in DMSO and diluted in Tris/Casein Assay Buffer (10 mM Tris, 145 mM NaCl, 0.5 mM MgCl2, 0.15 mM CaCl2, and 0.1% W/V Casein, adjusted to pH 7.4) as 9-point serial dilutions in a 96 well plate. Sensitized sheep red blood cells (RBC) coated with rabbit anti-sheep erythrocyte antiserum (Complement Technology, Inc., TX, USA) were washed in Tris/Casein Assay Buffer. 50 μL from each well of diluted compound was added to a 96-well plate containing 50 μL diluted human serum (Complement Technology, Inc., TX, USA) and incubated for 15 minutes at room temperature. The serum dilution factor was optimized for every serum batch to obtain 70-90% of maximal haemolysis using the protocol. Then 50 μL sensitized sheep red blood cells were added to all wells ([…] per well). After 30 minutes of incubation at 37° C. with gentle agitation, the reaction was stopped by addition of 50 μL Tris STOP Buffer per well (10 mM EDTA, 10 mM Tris, 145 mM NaCl adjusted to pH 7.4). The RBCs were then removed by centrifugation and the resulting supernatant measured for hemolysis by absorbance at 405 nm. The response was normalized relative to a positive and negative control (vehicle) to calculate the IC50 from the concentration response curve using the 4-parameter logistic (4PL) nonlinear model for curve fitting.

The mark [1] stands for this setting: Table 3, human serum, sensitized sheep red blood cells, read-out: IC50[nM], in vitro analysis of inhibition of hemolysis.

Read-outs that look alike come from different tables or passages of the source. Starred links: 1 amine or outer side, 2 acyl side, 3 side chain; linkers in the order of their positions; H or OH if unused. Positions of bridges follow the written chain, without caps; N, C: chain ends. Non-standard residues stand in square brackets, D forms with d. Residues, ends and D or L forms follow the SMILES beside them. Groups on a side chain read outwards from the residue. *: point of attachment. X1 = O=C(O)CCCCCCCCCCCCCCC(=O)N1CCN(CC(=O)*)CC1; Trp(1-Me) = Cn1cc(C[C@H](N)C(=O)O)c2ccccc21; Abu(4-yl) = O=C([C@H](CC[*:3])N[*:1])[*:2]; C18 diacid = O=C(O)CCCCCCCCCCCCCCCCC(=O)*; γGlu = O=C(O)[C@H](CCC(=O)[*:2])N[*:1]; AEEA = NCCOCCOCC(=O)O; Aoc = NCCCCCCCC(=O)O; Sar = CNCC(=O)O Bounds are passed on as bounds.

The IC50 is the midpoint of a concentration-inhibition curve. In the case of `CC[C@H](C)[C@@H]1NC(=O)[C@@H](NC(=O)CN(C)C(C)=O)CSSC[C@@H](C(=O)N[C@H](C(N)=O)[C@@H](C)O)NC(=O)[C@H](CCCNC(=N)N)NC(=O)[C@H](Cc2c[nH]cn2)NC(=O)[C@H](CCC(=O)O)NC(=O)CNC(=O)[C@H](Cc2c[nH]c3ccccc23)NC(=O)[C@H](CC(=O)O)NC(=O)[C@H](CCC(N)=O)NC(=O)[C@H](Cc2c[nH]c3ccccc23)NC1=O` [Compound 11] (Ac-[Sar]CIWQDWGEHRCT-NH2; disulfide 2-12), the IC50 under setting [1] was less than 100 nM. The same measure, in the same setting: next, `CC[C@H](C)[C@@H]1NC(=O)[C@@H](NC(=O)[C@H](Cc2ccc(O)cc2)NC(=O)[C@H](C)NC(=O)[C@H](CO)NC(=O)CNC(=O)[C@H](CCC(=O)O)NC(C)=O)CSSC[C@@H](C(=O)N(C)CC(=O)N[C@@H](CCC(=O)O)C(=O)NCC(=O)N[C@@H](CCCCN)C(=O)N[C@@H](CCCCNC(=O)CC[C@H](NC(=O)CNC(=O)CC[C@H](NC(=O)CCCCCCCCCCCCCCCCC(=O)O)C(=O)O)C(=O)O)C(N)=O)NC(=O)[C@H](CCCNC(=N)N)NC(=O)[C@H](Cc2c[nH]cn2)NC(=O)[C@H](CCC(=O)O)NC(=O)CNC(=O)[C@H](Cc2c[nH]c3ccccc23)NC(=O)[C@H](CC(=O)O)NC(=O)[C@H](CCC(N)=O)NC(=O)[C@H](Cc2cn(C)c3ccccc23)NC1=O` [Compound 110] (Ac-EGSAYCI[Trp(1-Me)]QDWGEHRC[Sar]EGKK([γGlu-Gly-γGlu-C18 diacid])-NH2; disulfide 6-16): less than 250 nM. For the molecule `CC[C@H](C)[C@H](NC(C)=O)C(=O)N[C@H]1CSSC[C@@H](C(=O)N[C@H](C(N)=O)[C@@H](C)O)NC(=O)[C@H](CO)NC(=O)[C@H](Cc2c[nH]cn2)NC(=O)[C@H](CCC(=O)O)NC(=O)CNC(=O)[C@H](Cc2c[nH]c3ccccc23)NC(=O)[C@H](CC(=O)O)NC(=O)[C@H](CCC(N)=O)NC(=O)[C@H](Cc2c[nH]c3ccccc23)NC(=O)[C@H]([C@@H](C)CC)NC1=O` [Compound 20] (Ac-ICIWQDWGEHSCT-NH2; disulfide 2-12), the IC50 by setting is: under setting [1], less than 100 nM; (Table 4, valine 3 versus isoleucine 3 pairs, read-out: CP hemolysis IC50) 59 nM. In the case of `CC[C@H](C)[C@@H]1NC(=O)[C@@H](NC(=O)[C@H](Cc2ccc(O)cc2)NC(C)=O)CSSC[C@@H](C(=O)N[C@H](C(=O)N[C@@H](CCC(=O)O)C(=O)N[C@@H](CO)C(=O)NCC(=O)N[C@@H](C)C(N)=O)[C@@H](C)O)NC(=O)[C@H](CCCNC(=N)N)NC(=O)[C@H](Cc2c[nH]cn2)NC(=O)[C@H](CCC(=O)O)NC(=O)CNC(=O)[C@H](Cc2c[nH]c3ccccc23)NC(=O)[C@H](CC(=O)O)NC(=O)[C@H](CCC(N)=O)NC(=O)[C@H](Cc2cn(C)c3ccccc23)NC1=O` [Compound 69] (Ac-YCI[Trp(1-Me)]QDWGEHRCTESGA-NH2; disulfide 2-12), the IC50 under setting [1] was less than 100 nM.

Take `CC[C@H](C)[C@@H]1NC(=O)[C@@H](NC(=O)[C@H](Cc2ccccc2)NC(=O)[C@H](CCC(=O)O)NC(=O)[C@H](CO)NC(C)=O)CSSC[C@@H](C(=O)N(C)CC(=O)N[C@@H](CCC(=O)O)C(=O)N[C@@H](C)C(N)=O)NC(=O)[C@H](CCCCN)NC(=O)[C@H](Cc2c[nH]cn2)NC(=O)[C@H](CCC(=O)O)NC(=O)CNC(=O)[C@H](Cc2c[nH]c3ccccc23)NC(=O)[C@H](CC(=O)O)NC(=O)[C@H](CCC(N)=O)NC(=O)[C@H](Cc2cn(C)c3ccccc23)NC1=O` [Compound 86] (Ac-SEFCI[Trp(1-Me)]QDWGEHKC[Sar]EA-NH2; disulfide 4-14): the IC50 under setting [1] was less than 100 nM. Same read-out and setting: next, `CC[C@H](C)[C@@H]1NC(=O)[C@@H](NC(=O)[C@H](Cc2ccccc2)NC(=O)[C@H](CCC(=O)O)NC(=O)[C@H](CO)NC(C)=O)CSSC[C@@H](C(=O)N(C)CC(=O)N[C@@H](CCC(=O)O)C(=O)N[C@@H](CCCCN)C(=O)N[C@@H](CCC(=O)NCC(=O)NCC(=O)NCC(=O)N[C@@H](CCCCNC(=O)CC[C@H](NC(=O)CNC(=O)CC[C@H](NC(=O)CCCCCCCCCCCCCCCCC(=O)O)C(=O)O)C(=O)O)C(N)=O)C(=O)O)NC(=O)[C@H](CCCNC(=N)N)NC(=O)[C@H](Cc2c[nH]cn2)NC(=O)[C@H](CCC(=O)O)NC(=O)CNC(=O)[C@H](Cc2c[nH]c3ccccc23)NC(=O)[C@H](CC(=O)O)NC(=O)[C@H](CCC(N)=O)NC(=O)[C@H](Cc2cn(C)c3ccccc23)NC1=O` [Compound 132] (Ac-SEFCI[Trp(1-Me)]QDWGEHRC[Sar]EK[γGlu]GGGK([γGlu-Gly-γGlu-C18 diacid])-NH2; disulfide 4-14): less than 100 nM; `CC[C@H](C)[C@@H]1NC(=O)[C@@H](NC(=O)[C@H](Cc2ccccc2)NC(=O)[C@H](CCC(=O)O)NC(=O)CNC(C)=O)CSCC[C@@H](C(=O)N(C)CC(=O)N[C@@H](CCC(=O)O)C(=O)N[C@@H](C)C(=O)N[C@@H](CCC(=O)O)C(=O)NCCOCCOCC(=O)NCCOCCOCC(=O)N[C@@H](CCCCNC(=O)CC[C@H](NC(=O)CNC(=O)CC[C@H](NC(=O)CCCCCCCCCCCCCCCCC(=O)O)C(=O)O)C(=O)O)C(N)=O)NC(=O)[C@H](CCCNC(=N)N)NC(=O)[C@H](Cc2c[nH]cn2)NC(=O)[C@H](CCC(=O)O)NC(=O)CN(C)C(=O)[C@H](Cc2c[nH]c3ccccc23)NC(=O)[C@H](CC(=O)O)NC(=O)[C@H](CCC(N)=O)NC(=O)[C@H](Cc2cn(C)c3ccccc23)NC1=O` [Compound 149, Ac-GEFA(1)I[1-Me-Trp]QDW[Sar]EHRhC(1)[Sar]EAE[Peg3][Peg3]-K([17-carboxy-heptadecanoyl][γGlu]G[γGlu])-NH2] (Ac-GEFCI[Trp(1-Me)]QDW[Sar]EHR[Abu(4-yl)][Sar]EAE[AEEA][AEEA]K([γGlu-Gly-γGlu-C18 diacid])-NH2; thioether 4-14): less than 100 nM. Same read-out and setting: next, `CC[C@H](C)[C@@H]1NC(=O)[C@@H](NC(=O)[C@H](Cc2ccccc2)NC(=O)[C@H](CCC(=O)O)NC(C)=O)CSSC[C@@H](C(=O)N[C@@H](CCC(=O)O)C(=O)N[C@@H](CO)C(N)=O)NC(=O)[C@H](CCCNC(=N)N)NC(=O)[C@H](Cc2c[nH]cn2)NC(=O)[C@H](CCC(=O)O)NC(=O)CNC(=O)[C@H](Cc2c[nH]c3ccccc23)NC(=O)[C@H](CC(=O)O)NC(=O)[C@H](CCC(N)=O)NC(=O)[C@H](Cc2cn(C)c3ccccc23)NC1=O` [Compound 85] (Ac-EFCI[Trp(1-Me)]QDWGEHRCES-NH2; disulfide 3-13): less than 100 nM. The same measure, in the same setting: next, `CC[C@H](C)[C@@H]1NC(=O)[C@@H](NC(=O)[C@H](Cc2ccc(O)cc2)NC(=O)[C@H](C)NC(=O)[C@H](CO)NC(=O)CNC(=O)[C@H](CCC(=O)O)NC(C)=O)CSCC[C@@H](C(=O)N(C)CC(=O)N[C@@H](CCC(=O)O)C(=O)N[C@@H](CCCCN)C(=O)N[C@@H](CCC(=O)N[C@@H](CCCCNC(=O)COCCOCCNC(=O)COCCOCCNC(=O)CC[C@H](NC(=O)CCCCCCCCCCCCCCCCC(=O)O)C(=O)O)C(N)=O)C(=O)O)NC(=O)[C@H](CCCNC(=N)N)NC(=O)[C@H](Cc2c[nH]cn2)NC(=O)[C@H](CCC(=O)O)NC(=O)CNC(=O)[C@H](Cc2c[nH]c3ccccc23)NC(=O)[C@H](CC(=O)O)NC(=O)[C@H](CCC(N)=O)NC(=O)[C@H](Cc2cn(C)c3ccccc23)NC1=O` [Compound 159, Ac-EGSAYA(1)I[1-Me-Trp]QDWGEHRhC(1)[Sar]EK[γGlu]-K([17-carboxy-heptadecanoyl][γGlu][Peg3][Peg3])-NH2] (Ac-EGSAYCI[Trp(1-Me)]QDWGEHR[Abu(4-yl)][Sar]EK[γGlu]K([AEEA-AEEA-γGlu-C18 diacid])-NH2; thioether 6-16): less than 100 nM; `CC[C@H](C)[C@@H]1NC(=O)[C@@H](NC(=O)[C@H](Cc2ccccc2)NC(=O)[C@H](CCC(=O)O)NC(=O)[C@H](CO)NC(C)=O)CSSC[C@@H](C(=O)N[C@H](C(=O)N[C@@H](CCC(=O)O)C(=O)NCC(=O)N[C@@H](CCC(=O)O)C(=O)NCCCCCCCC(=O)N[C@@H](CCC(=O)O)C(=O)N[C@@H](CCCCNC(=O)CC[C@H](NC(=O)CNC(=O)CC[C@H](NC(=O)CCCCCCCCCCCCCCCCC(=O)O)C(=O)O)C(=O)O)C(N)=O)[C@@H](C)O)NC(=O)[C@H](CCCNC(=N)N)NC(=O)[C@H](Cc2c[nH]cn2)NC(=O)[C@H](CCC(=O)O)NC(=O)CNC(=O)[C@H](Cc2c[nH]c3ccccc23)NC(=O)[C@H](CC(=O)O)NC(=O)[C@H](CCC(N)=O)NC(=O)[C@H](Cc2cn(C)c3ccccc23)NC1=O` [Compound 137] (Ac-SEFCI[Trp(1-Me)]QDWGEHRCTEGE[Aoc]EK([γGlu-Gly-γGlu-C18 diacid])-NH2; disulfide 4-14): less than 100 nM; `CC[C@H](C)[C@H](NC(C)=O)C(=O)N[C@H]1CSSC[C@@H](C(=O)N[C@H](C(=O)N[C@@H](CCC(=O)O)C(=O)NCC(=O)N[C@@H](CCCCNC(=O)COCCOCCNC(=O)COCCOCCNC(=O)CN2CCN(C(=O)CCCCCCCCCCCCCCC(=O)O)CC2)C(N)=O)[C@@H](C)O)NC(=O)[C@H](CCCNC(=N)N)NC(=O)[C@H](Cc2c[nH]cn2)NC(=O)[C@H](CCC(=O)O)NC(=O)CNC(=O)[C@H](Cc2c[nH]c3ccccc23)NC(=O)[C@H](CC(=O)O)NC(=O)[C@H](CCC(N)=O)NC(=O)[C@H](Cc2c[nH]c3ccccc23)NC(=O)[C@H]([C@@H](C)CC)NC1=O` [Compound 95] (Ac-ICIWQDWGEHRCTEGK([AEEA-AEEA-X1])-NH2; disulfide 2-12): less than 500 nM.
